# Measured values taken from article PMC5954004, “19th European Symposium on Radiopharmacy and Radiopharmaceuticals (ESRR’18)” (EJNMMI Radiopharmacy and Chemistry, 2018).
# Where two headings read alike, the source gives them in different places. *1 amine or outer side, *2 acyl side, *3 side chain or, on linkers, in order; H or OH if unused. Where a SMILES comes first, the peptide text is derived from it. Bridges are numbered along the chain shown (N, C = ends). Where no end group is shown, it is not given here. [ ]: non-standard residue; d: D form. X1 = O=C([C@@H]1CCN=C2C(N[*:1])=Cc3cc(O)c(O)cc3N21)[*:2]; X2 = O=CN(O)CCC[C@H](N[*:1])C(=O)[*:2]; Suc = O=C(CCC(=O)[*:2])[*:1]
# Experiments:
# [1] = system: COX-2; settings: cited from earlier work
# Text: (§1) Aim: Neolignan 4’-O-methylhonokiol (MH) isolated from Magnolia grandiflora is known to have several biological activities, including anti-cancer, anti-inflammatory and anti-neurodegenerative effects. […] The development of COX-2 inhibitor radiolabeled analogs is of special interest for PET visualization of inflammation and tumors.
# [2] = system: COX-1; settings: cited from earlier work
# Text: as §1
# [3] = carrageenan-induced inflammation in mice; assay type: in vivo; settings: preliminary tests on mice with a carrageenan-induced inflammation
# Text: as §1, with “tumors. […] The present study describes the radiolabeling procedure of [^11C]MPbP.” for “tumors.”
# [4] = human, serum
# Procedure: Protein binding, partition coefficient and stability values of ^68Ga-pyoverdine in human serum and in the excess of competing chelator and metal were determined.
# [5] = system: RBCs; assay: RBC radiolabelling; assay type: cell-based
# [6] = system: Her-2-positive (HCC1954) cell line; assay: cell binding and internalisation, HCC1954; assay type: cell-based; settings: controls
# Procedure: Radiopharmaceuticals (0.19 MBq/μg) were tested for their internalisation and effects on viability (dye exclusion) and clonogenicity of Her-2-positive (HCC1954) and –negative (MDA-MB-231) cell lines.
# [7] = system: T47D^+; assay: total cell bound tracer, T47D+; settings: 1h incubation
# Procedure: (§2) Total cell bound [^68Ga]1 and [^68Ga]2 over time (0-90 min) was determined according to previously published methods^1,2. FACS analysis with 3 was also performed on the following cell lines T47D^+ (PSMA^+), T47D^Mock (vector only), T47D (wild type).
# [8] = system: LNCaP; assay: total cell bound tracer, LNCaP; settings: 1h incubation
# Procedure: as §2
# [9] = system: PC-3^+; assay: total cell bound tracer, PC-3+; settings: 1h incubation
# Procedure: as §2
# [10] = system: MDA-MB-231^+; assay: total cell bound tracer, MDA-MB-231+; settings: 1h incubation
# Procedure: as §2
# [11] = system: MCF-7 cells; assay: cellular uptake, internalization and membrane binding; assay type: cell-based
# [12] = cysteine challenge; assay type: physicochemical; settings: 100 fold molar excess, up to 2 hours
# Procedure: Cysteine challenge (100 fold molar excess) was also performed.
# [13] = adult, 740 MBq; ref summary of products characteristics; cited from earlier work
# [14] = molecular target: T1, AT1R (Homo sapiens, UniProt P30556); assay: in vitro AT1R binding studies; assay type: cell-based; settings: MDA-MB-231 and CHO AT1R cells vs AT1R-negative CHO cells, 4 °C, one hour, with or without losartan potassium 100 μM
# T1 construct: using AT1R-positive MDA-MB-231 breast cancer cells; endogenous in cells
# Procedure: Methods: ^19F-AmBF3-losartan was prepared via a copper-catalyzed alkyne-AmBF3 and azide-modified losartan cycloaddition at 45 °C for two hours, followed by semi-preparative HPLC purification. Then, ^19F-AmBF3-losartan (25 nmol, 15.3 μg) was radiolabeled with fluoride-18 (555-925 MBq) via an ^18F–^19F isotope exchange reaction in aqueous phase at 80 °C for 20 minutes and purified by solid phase extraction using a C18 Light Sep-Pak cartridge. In vitro AT1R binding studies were performed at 4 °C for one hour using AT1R-positive MDA-MB-231 breast cancer cells, AT1R-expressing CHO AT1R cells, and AT1R-negative CHO cells. The in vitro studies were conducted in presence or absence of the AT1R blocker losartan potassium (100 μM). AT1R expression in cells was confirmed by quantitative real-time reverse transcription polymerase chain reaction (RT-PCR).
# [15] = logP of 68Ga-TAFC derivatives; assay type: physicochemical; settings: 68Ga-labelled
# Procedure: Stability, protein binding and logP values were determined.
# [16] = molecular target: T2, rhuPAR (human, UniProt Q03405 23-305); assay: ELISA; competitive bioassay: rhuPAR immobilised; ligand 0-1000 uM in the presence of 0.1 nM monoclonal mouse IgG1 antibody (clone #62022, R&D Systems) against the uPA-binding pocket of uPAR; HRP-conjugated goat anti-mouse IgG1, chromogenic substrate, read at 450 nm; assay specific IC50; settings: both partners purified
# T2 construct: Species read from the printed label 'rhuPAR' (recombinant human uPAR); also called membrane anchored receptor uPAR
# T2 sequence (Q03405 23-305): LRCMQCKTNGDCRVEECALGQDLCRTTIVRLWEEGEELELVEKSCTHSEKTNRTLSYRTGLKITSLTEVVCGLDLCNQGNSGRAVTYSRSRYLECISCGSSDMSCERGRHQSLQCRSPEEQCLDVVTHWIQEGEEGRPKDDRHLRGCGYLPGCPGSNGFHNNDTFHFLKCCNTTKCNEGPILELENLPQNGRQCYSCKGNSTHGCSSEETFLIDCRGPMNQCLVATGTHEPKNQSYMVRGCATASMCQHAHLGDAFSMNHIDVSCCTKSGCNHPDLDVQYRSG
# T1 sequence (P30556 whole entry): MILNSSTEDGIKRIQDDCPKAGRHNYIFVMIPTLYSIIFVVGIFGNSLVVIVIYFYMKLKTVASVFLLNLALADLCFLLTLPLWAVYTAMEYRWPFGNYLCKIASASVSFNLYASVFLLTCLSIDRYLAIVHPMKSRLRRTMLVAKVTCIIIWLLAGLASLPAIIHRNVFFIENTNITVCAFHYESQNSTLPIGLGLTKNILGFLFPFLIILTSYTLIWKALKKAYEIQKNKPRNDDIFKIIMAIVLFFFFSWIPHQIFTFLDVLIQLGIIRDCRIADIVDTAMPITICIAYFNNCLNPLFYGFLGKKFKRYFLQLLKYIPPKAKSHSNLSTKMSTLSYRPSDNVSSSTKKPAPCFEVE
molecule,measurement,setting,value
"C=CCc1ccc(O)c(-c2ccc(OC)c(CC=C)c2)c1 [MH, 4’-O-methylhonokiol]",IC50,[1],62 nM
same,IC50,[2],2400 nM
"CCCc1ccc(O)c(-c2ccc(O[11CH3])cc2)c1 [MPbP, 4’-[^11C]methoxy-5-propyl-1,1’-biphenyl-2-ol]",anti-inflammatory activity,[3],high anti-inflammatory activity comparable to that of specific COX-2 inhibitor celecoxib
"C[C@@H](O)[C@@H]1NC(=O)[C@H](CCCN(O)C=O)NC(=O)[C@@H](NC(=O)[C@H](CCCN(O)C=O)NC(=O)[C@@H](CO)NC(=O)[C@H](CCCNC(=N)N)NC(=O)[C@@H](CO)NC(=O)[C@@H]2CCN=C3C(NC(=O)CCC(=O)O)=Cc4cc(O)c(O)cc4N32)CCCCNC(=O)[C@H]([C@@H](C)O)NC1=O [^68Ga-pyoverdine, metal not drawn] (Suc-[X1][dS]R[dS][X2]K[X2]TT; lactam 6-C)",log p,,-3.07 ± 0.08
same,fraction unbound,[4],> 0.97
c1cnc2c([O][89Zr]([O]c3cccc4cccnc34)([O]c3cccc4cccnc34)[O]c3cccc4cccnc34)cccc2c1 [^89Zr-oxine],labelling efficiency of RBCs,[5],above 64.5%
O=C([O-])CN1CCN(CC(=O)[O-])CCN(CC(=O)[O-])CCN(CC(=O)[O-])CC1.[111In+3] [^111In-DOTA],binding to HCC1954 cells,[6],did not bind
H2N-(Ahx)-Lys-NH-CO-NH-Glu (PSMA-11) [[^68Ga]1],"cell binding, % given radioactivity",[7],~ 2.5%
same,"cell binding, times above control",[7]; vs Mock or blocked controls,4 x
same,"cell binding, % given radioactivity",[8],~ 66%
same,"cell binding, % given radioactivity",[9],~ 13%
same,"cell binding, times above control",[9]; vs Mock or blocked controls,10 x
same,"cell binding, % given radioactivity",[10],~ 80%
same,"cell binding, times above control",[10]; vs Mock or blocked controls,100 x
"MA-Cys-Tyr-Arg-Leu-Arg-BPA-Nle-Pro-Asn-Ile-OH [^99mTc labelled NPY1 short analogue, 99mTc 3+1 nitrido complex of MA-Cys-Tyr-Arg-Leu-Arg-BPA-Nle-Pro-Asn-Ile-OH]",activity bound to the membrane,[11],15.2%
same,activity internalised,[11],84.8%
same,cellular uptake,[11]; at 4 hours,3.1±0.2
same,challenge with cysteine,[12],no ligand exchange
"^99mTc-HYNIC-[D-Phe,Tyr-octreotide [^99mTc-Octreotide]",effective dose,[13],3.7 mSv
ammoniumethyl-trifluoroborate-losartan [^18F-AmBF3-losartan],binding to AT1R-expressing cells,[14],specific binding
triacetylfusarinine C [[^68Ga]TAFC],log p,[15],-2.1
"[dC]NKYFSNICW (peptide, UniProt P00749 41-50, looked up, disulfide 1-9, also called the original structure; source: synthetic peptide (synthesised on solid phase)) [WX-360: cyclo^21,29[D-Cys^21]-uPA_(21-30)[S21C;H29C]]",binding result,[16],binds
